Experimental data: patent US12428406B2 (PMV Pharmaceuticals, Inc., priority 2019, dated 2025)

The compounds below were run against T1, p53 Y220C (Homo sapiens, UniProt P04637, Y220C) (assay: In vitro DNA binding activity assay (HTRF / TR-FRET): stabilization of p53 Y220C and increase of its DNA binding activity). Settings: recombinant His-tagged p53 Y220C DNA binding domain (aa 94-312), biotin-labeled consensus DNA, incubated at 27° C. or 29° C. for 60 min.
T1 construct: The recombinant protein was a truncation mutant containing only amino acids 94-312 of p53; made in house; host or cells: E. coli
T1 sequence (P04637 94-312, change not shown): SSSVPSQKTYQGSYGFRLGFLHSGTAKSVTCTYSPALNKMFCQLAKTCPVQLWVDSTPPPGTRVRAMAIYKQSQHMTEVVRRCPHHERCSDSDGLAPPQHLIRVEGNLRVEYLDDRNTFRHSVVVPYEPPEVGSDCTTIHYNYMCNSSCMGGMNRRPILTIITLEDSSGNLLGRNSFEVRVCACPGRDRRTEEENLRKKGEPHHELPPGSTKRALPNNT
Type: biochemical
Procedure, shortened: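 Homogeneous time-resolved fluorescence with E. coli-derived p53 Y220C and biotinylated consensus DNA. Room-temperature incubations of 15 and 20 min precede reading. SC150 denotes the compound concentration required for 50% increased DNA binding.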

SC150 (concentration of the compound required to increase the DNA binding activity by 50%), + (+ = 0 μM ≤ SC150 < 0.05 μM):
COc1cc(S(N)(=O)=O)ccc1NCC#Cc1cc2c(N[C@H]3CC[C@@H](N(CCO)CCO)CC3)cccc2n1CC(F)(F)F [Compound 45A, 3-methoxy-4-{[3-(4-{[(1S,4S)-4-[bis(2-hydroxyethyl)amino]cyclohexyl]amino}-1-(2,2,2-trifluoroethyl)-1H-indol-2-yl)prop-2-yn-1-yl]amino}benzene-1-sulfonamide]
COc1cc(S(=O)(=O)Nc2ccon2)ccc1NCC#Cc1cc2c(N[C@H]3CC[C@H](N(C)C)CC3)cccc2n1CC(F)(F)F [Compound 48A, 3-methoxy-N-(1,2-oxazol-3-yl)-4-{[3-(4-{[(1R,4R)-4-(dimethylamino)cyclo-hexyl]amino}-l-(2,2,2-trifluoroethyl)-1H-indol-2-yl)prop-2-yn-1-yl]amino}benzene-1-sulfonamide]
COc1cc(S(=O)(=O)NC2CCOCC2)ccc1NCC#Cc1cc2c(N[C@H]3CC[C@H](N(C)C)CC3)cccc2n1CC(F)(F)F [Compound 49A, 3-methoxy-N-(oxan-4-yl)-4-{[3-(4-{[(1R,4R)-4-(dimethylamino)cyclohexyl]amino}-1-(2,2,2-trifluoroethyl)-1H-indol-2-yl)prop-2-yn-1-yl]amino}benzene-1-sulfonamide]
COc1cc(S(=O)(=O)Nc2ccon2)ccc1NCC#Cc1cc2c(N[C@H]3CC[C@@H](N(C)C)CC3)cccc2n1CC(F)(F)F [Compound 50A, 3-methoxy-N-(1,2-oxazol-3-yl)-4-{[3-(4-{[(1S,4S)-4-(dimethylamino)cyclohexyl]amino}-1-(2,2,2-trifluoro-ethyl)-1H-indol-2-yl)prop-2-yn-1-yl]amino}benzene-1-sulfonamide]
COc1cc(S(=O)(=O)NC2CCOCC2)ccc1NCC#Cc1cc2c(N[C@H]3CC[C@@H](N(C)C)CC3)cccc2n1CC(F)(F)F [Compound 51A, 3-methoxy-N-(oxan-4-yl)-4-{[3-(4-{[(1S,4S)-4-(dimethylamino)cyclohexyl]amino}-1-(2,2,2-trifluoroethyl)-1H-indol-2-yl)prop-2-yn-1-yl]amino}benzene-1-sulfonamide]
COc1cc(S(=O)(=O)Nc2cc(C)on2)ccc1NCC#Cc1cc2c(N[C@H]3CC[C@@H](N(C)C)CC3)cccc2n1CC(F)(F)F [Compound 54A, 3-methoxy-N-(5-methyl-1,2-oxazol-3-yl)-4-{[3-(4-{[(1S,4S)-4-(dimethylamino)cyclohexyl]amino}-l-(2,2,2-trifluoroethyl)-1H-indol-2-yl)prop-2-yn-1-yl]amino}benzene-1-sulfonamide]
COc1cc(S(=O)(=O)Nc2cc(C)on2)ccc1NCC#Cc1cc2c(N[C@H]3CC[C@H](N(C)C)CC3)cccc2n1CC(F)(F)F [Compound 55A, 3-methoxy-N-(5-methyl-1,2-oxazol-3-yl)-4-{[3-(4-{[(1R,4R)-4-(dimethylamino)cyclohexyl]amino}-1-(2,2,2-trifluoroethyl)-1H-indol-2-yl)prop-2-yn-1-yl]amino}benzene-1-sulfonamide]
COCCN(C)[C@H]1CC[C@@H](Nc2cccc3c2cc(C#CCNc2ccc(S(C)(=O)=O)cc2OC)n3CC(F)(F)F)CC1 [Compound 56A, (1S,4S)-N^4-(2-{3-[(4-methanesulfonyl-2-methoxyphenyl)amino]prop-1-yn-1-yl}-1-(2,2,2-trifluoroethyl)-1H-indol-4-yl)-N^1-(2-methoxyethyl)-N^1-methylcyclohexane-1,4-diamine]
COCCN(C)[C@H]1CC[C@H](Nc2cccc3c2cc(C#CCNc2ccc(S(C)(=O)=O)cc2OC)n3CC(F)(F)F)CC1 [Compound 57A, (1R,4R)-N^4-(2-{3-[(4-methanesulfonyl-2-methoxyphenyl)amino]prop-1-yn-1-yl}-1-(2,2,2-trifluoro-ethyl)-1H-indol-4-yl)-N^1-(2-methoxyethyl)-N^1-methylcyclohexane-1,4-diamine]
COc1cc(S(N)(=O)=O)ccc1NCC#Cc1cc2c(N[C@H]3CC[C@@H](N4C[C@H](O)[C@@H](O)C4)CC3)cccc2n1CC(F)(F)F [Compound 58A, 3-methoxy-4-{[3-(4-{[(1S,4S)-4-[(3S,4S)-3,4-dihydroxypyrrolidin-1-yl]cyclohexyl]amino}-1-(2,2,2-trifluoroethyl)-1H-indol-2-yl)prop-2-yn-1-yl]amino}benzene-1-sulfonamide]
COCCN(CCOC)[C@H]1CC[C@H](Nc2cccc3c2cc(C#CCNc2ccc(S(N)(=O)=O)cc2OC)n3CC(F)(F)F)CC1 [Compound 61A, 3-methoxy-4-{[3-(4-{[(1R,4R)-4-[bis(2-methoxyethyl)amino]cyclo-hexyl]amino}-1-(2,2,2-trifluoroethyl)-1H-indol-2-yl)prop-2-yn-1-yl]amino}benzene-1-sulfonamide]
COCCN(CCOC)[C@H]1CC[C@@H](Nc2cccc3c2cc(C#CCNc2ccc(S(N)(=O)=O)cc2OC)n3CC(F)(F)F)CC1 [Compound 62A, 3-methoxy-4-{[3-(4-{[(1S,4S)-4-[bis(2-methoxyethyl)amino]cyclo-hexyl]amino}-1-(2,2,2-trifluoroethyl)-1H-indol-2-yl)prop-2-yn-1-yl]amino}benzene-1-sulfonamide]
COc1cc(S(N)(=O)=O)ccc1NCC#Cc1cc2c(NC3CCC4(CC3)OCCO4)cccc2n1CC(F)(F)F [Compound 63A, 4-({3-[4-({1,4-dioxaspiro[4.5]decan-8-yl}amino)-1-(2,2,2-trifluoroethyl)-1H-indol-2-yl]prop-2-yn-1-yl}amino)-3-methoxy-benzene-1-sulfonamide]
COc1cc(S(C)(=O)=O)ccc1NCC#Cc1cc2c(NC3CCC4(CC3)OCCO4)cccc2n1CC(F)(F)F [Compound 64A, N-{1,4-dioxaspiro[4.5]decan-8-yl}-2-{3-[(4-methane-sulfonyl-2-methoxy-phenyl)amino]prop-1-yn-1-yl}-1-(2,2,2-trifluoroethyl)-1H-indol-4-amine]
COc1cc(S(N)(=O)=O)ccc1NCC#Cc1cc2c(NC3CCC(=O)CC3)cccc2n1CC(F)(F)F [Compound 65A, 3-methoxy-4-[(3-{4-[(4-oxocyclohexyl)amino]-1-(2,2,2-trifluoroethyl)-1H-indol-2-yl}prop-2-yn-1-yl)amino]benzene-1-sulfonamide]
COc1cc(S(C)(=O)=O)ccc1NCC#Cc1cc2c(NC3CCC(=O)CC3)cccc2n1CC(F)(F)F [Compound 66A, 4-[(2-{3-[(4-methane-sulfonyl-2-methoxy-phenyl)amino]prop-1-yn-1-yl}-1-(2,2,2-trifluoroethyl)-1H-indol-4-yl)amino]cyclo-hexan-1-one]
COc1cc(S(=O)(=O)N2CCOCC2)ccc1NCC#Cc1cc2c(N[C@H]3CC[C@H](N(C)C)CC3)cccc2n1CC(F)(F)F [Compound 67A, (1R,4R)-N^4-[2-(3-{[2-methoxy-4-(morpholine-4-sulfonyl)phenyl]amino}prop-1-yn-1-yl)-1-(2,2,2-trifluoro-ethyl)-1H-indol-4-yl]-N^1,N^1-dimethyl-cyclohexane-1,4-diamine]
COc1cc(S(=O)(=O)N2CCOCC2)ccc1NCC#Cc1cc2c(N[C@H]3CC[C@@H](N(C)C)CC3)cccc2n1CC(F)(F)F [Compound 68A, (1S,4S)-N4-[2-(3-{[2-methoxy-4-(morpholine-4-sulfonyl)phenyl]amino}prop-1-yn-1-yl)-1-(2,2,2-trifluoro-ethyl)-1H-indol-4-yl]-N^1,N^1-dimethyl-cyclohexane-1,4-diamine]
COc1cc(S(=O)(=O)N(CCO)CCO)ccc1NCC#Cc1cc2c(N[C@H]3CC[C@@H](N(C)C)CC3)cccc2n1CC(F)(F)F [Compound 69A, N,N-bis(2-hydroxyethyl)-3-methoxy-4-{[3-(4-{[(1S,4S)-4-(dimethyl-amino)cyclohexyl]amino}-1-(2,2,2-trifluoroethyl)-1H-indol-2-yl)prop-2-yn-1-yl]amino}benzene-1-sulfonamide]
COc1cc(S(=O)(=O)N(CCO)CCO)ccc1NCC#Cc1cc2c(N[C@H]3CC[C@H](N(C)C)CC3)cccc2n1CC(F)(F)F [Compound 70A, N,N-bis(2-hydroxyethyl)-3-methoxy-4-{[3-(4-{[(1R,4R)-4-(dimethyl-amino)cyclohexyl]amino}-1-(2,2,2-trifluoroethyl)-1H-indol-2-yl)prop-2-yn-1-yl]amino}benzene-1-sulfonamide]
